According to paper PMC12396409, “Screening and hit evaluation of a microbial metabolite library against the pathogenic Plasmodium falciparum and Toxoplasma gondii parasites” (International Journal for Parasitology: Drugs and Drug …, 2025):
Like-named read-outs stand apart in the source and are kept apart here.

Legend:
[1] = system: P. falciparum 3D7 parasites; assay: P. falciparum growth inhibition assay, 2-cycle (120 h treatment), delayed-death screen and dose-response; format: cell-based, Plasmodium falciparum; conditions: for activity at 2 µg/mL: Plasmodium falciparum
[2] = system: T. gondii RH strain (RH-Tub-eYFP) tachyzoites; assay: microbe, parasite or virus in culture; format: cell-based, Toxoplasma gondii; conditions: 72 h; for percent parasite growth at 2 µg/mL: Toxoplasma gondii
[3] = system: P. falciparum 3D7 parasites; assay: P. falciparum growth inhibition assay, 1-cycle (72 h treatment), SYBR DNA staining (library screen at 2 μg/mL and dose-response); format: cell-based, Plasmodium falciparum; conditions: for activity at 2 µg/mL: Plasmodium falciparum
[4] = 3D7, P. falciparum, 120 h, screen at 2 μg/mL, replicate 1, read-out: Pf_120h_%Growth_Rep1
[5] = 3D7, P. falciparum, 120 h, screen at 2 μg/mL, replicate 2, read-out: Pf_120h_%Growth_Rep2
[6] = 3D7, P. falciparum, 72 h, screen at 2 μg/mL, replicate 1, read-out: Pf_72h_%Growth_Rep1
[7] = 3D7, P. falciparum, 72 h, screen at 2 μg/mL, replicate 2, read-out: Pf_72h_%Growth_Rep2
[8] = library screen at 2 μg/mL, 120 h, % growth, replicate 1
[9] = library screen at 2 μg/mL, 120 h, % growth, replicate 2
[10] = library screen at 2 μg/mL, % growth, replicate 1
[11] = library screen at 2 μg/mL, % growth, replicate 2
[12] = library screen at 2 μg/mL, 72 h, % growth, replicate 1
[13] = library screen at 2 μg/mL, 72 h, % growth, replicate 2
[14] = P. falciparum 3D7, 120 h, library screen at 2 μg/mL, % growth, replicate 1
[15] = P. falciparum 3D7, 120 h, library screen at 2 μg/mL, % growth, replicate 2
[16] = T. gondii RH, library screen at 2 μg/mL, % growth, replicate 1
[17] = T. gondii RH, library screen at 2 μg/mL, % growth, replicate 2
[18] = P. falciparum 3D7, 72 h, library screen at 2 μg/mL, % growth, replicate 1
[19] = P. falciparum 3D7, 72 h, library screen at 2 μg/mL, % growth, replicate 2
[20] = P. falciparum, 120 h, screen at 2 μg/mL, replicate 1
[21] = P. falciparum, 120 h, screen at 2 μg/mL, replicate 2
[22] = T. gondii, screen at 2 μg/mL, replicate 1
[23] = T. gondii, screen at 2 μg/mL, replicate 2
[24] = P. falciparum, 72 h, screen at 2 μg/mL, replicate 1
[25] = P. falciparum, 72 h, screen at 2 μg/mL, replicate 2

Structure (SMILES): NC(=O)C=Cc1ccccc1 [Cinnamamide]
- activity at 2 µg/mL [1, 4]: 152%
- activity at 2 µg/mL [1, 5]: 94.1%
- percent parasite growth at 2 µg/mL ([2]; read-out: Tg_72h_%Growth_Rep1): 85.6%
- percent parasite growth at 2 µg/mL ([2]; read-out: Tg_72h_%Growth_Rep2): 87.3%
- activity at 2 µg/mL [3, 6]: 95%
- activity at 2 µg/mL [3, 7]: 81.9%

Structure (SMILES): COc1c(OC)c(-c2c[nH]c3ccccc23)c(OC)c(OC)c1-c1c[nH]c2ccccc12 [Asterriquinol D dimethylether]
- Pf_120h_%Growth_Rep1 [1, 8]: 55.71%
- Pf_120h_%Growth_Rep2 [1, 9]: 80.70%
- Tg_72h_%Growth_Rep1 [2, 10]: 135.53%
- Tg_72h_%Growth_Rep2 [2, 11]: 89.90%
- Pf_72h_%Growth_Rep1 [3, 12]: 80.59%
- Pf_72h_%Growth_Rep2 [3, 13]: 80.67%

Structure (SMILES): CC(=O)OC[C@]12[C@H](O)C(=O)C(C)=C[C@H]1O[C@@H]1[C@H](O)C[C@@]2(C)[C@]12CO2 [Acetyldeoxynivalenol, 15-]
- Pf_120h_%Growth_Rep1 [1, 8]: 6.22%
- Pf_120h_%Growth_Rep2 [1, 9]: 4.98%
- Tg_72h_%Growth_Rep1 [2, 10]: -2.45%
- Tg_72h_%Growth_Rep2 [2, 11]: -0.58%
- Pf_72h_%Growth_Rep1 [3, 12]: 5.76%
- Pf_72h_%Growth_Rep2 [3, 13]: -0.64%

Structure (SMILES): COc1ccc(C2CC(=O)c3c(O)cc(OC4OC(COC5OC(C)C(O)C(O)C5O)C(O)C(O)C4O)cc3O2)cc1O (stereo not drawn) [BIA-H1766]
- Pf_120h_%Growth_Rep1 [1, 14]: 111.90%
- Pf_120h_%Growth_Rep2 [1, 15]: 121.98%
- Tg_72h_%Growth_Rep1 [2, 16]: 124.64%
- Tg_72h_%Growth_Rep2 [2, 17]: 85.96%
- Pf_72h_%Growth_Rep1 [3, 18]: 83.53%
- Pf_72h_%Growth_Rep2 [3, 19]: 99.72%

Structure (SMILES): CN1C(=O)[C@]23CC4=CC=C[C@H](O)[C@H]4N2C(=O)[C@@]1(CO)SS3 [BIA-G1260]
- Pf_120h_%Growth_Rep1 [1, 14]: 35.56%
- Pf_120h_%Growth_Rep2 [1, 15]: 25.95%
- Tg_72h_%Growth_Rep1 [2, 16]: 1.56%
- Tg_72h_%Growth_Rep2 [2, 17]: 0.82%
- Pf_72h_%Growth_Rep1 [3, 18]: 14.96%
- Pf_72h_%Growth_Rep2 [3, 19]: 8.82%

Structure (SMILES): C=C(C)[C@@H]1CC[C@]2(C(=O)OC)CC[C@]3(C)[C@H](CC[C@@H]4[C@@]5(C)CC[C@H](O)C(C)(C)[C@@H]5CC[C@]43C)[C@@H]12 [Betulinate, Methyl]
- Pf_120h_%Growth_Rep1 [1, 8]: 150.46%
- Pf_120h_%Growth_Rep2 [1, 9]: 92.78%
- Tg_72h_%Growth_Rep1 [2, 10]: 84.95%
- Tg_72h_%Growth_Rep2 [2, 11]: 84.36%
- Pf_72h_%Growth_Rep1 [3, 12]: 96.31%
- Pf_72h_%Growth_Rep2 [3, 13]: 86.01%

Structure (SMILES): COc1ccc(-c2coc3cc(O)cc(O)c3c2=O)cc1 [Biochanin A]
- Pf_120h_%Growth_Rep1 [1, 8]: 158.83%
- Pf_120h_%Growth_Rep2 [1, 9]: 100.13%
- Tg_72h_%Growth_Rep1 [2, 10]: 75.87%
- Tg_72h_%Growth_Rep2 [2, 11]: 92.06%
- Pf_72h_%Growth_Rep1 [3, 12]: 105.15%
- Pf_72h_%Growth_Rep2 [3, 13]: 90.67%

Structure (SMILES): Cc1cc(O)c2c(c1)C(=O)c1cc(O)cc(O)c1C2=O [Emodin]
- activity at 2 µg/mL ([1]; 3D7, library screen at 2 μg/mL, 120 h, % growth, replicate 1, read-out: Pf_120h_%Growth_Rep1): 85.9%
- activity at 2 µg/mL ([1]; 3D7, library screen at 2 μg/mL, 120 h, % growth, replicate 2, read-out: Pf_120h_%Growth_Rep2): 114%
- percent parasite growth at 2 µg/mL ([2]; library screen at 2 μg/mL, % growth, replicate 1, read-out: Tg_72h_%Growth_Rep1): 116%
- percent parasite growth at 2 µg/mL ([2]; library screen at 2 μg/mL, % growth, replicate 2, read-out: Tg_72h_%Growth_Rep2): 87.4%
- activity at 2 µg/mL ([3]; 3D7, library screen at 2 μg/mL, 72 h, % growth, replicate 1, read-out: Pf_72h_%Growth_Rep1): 87.3%
- activity at 2 µg/mL ([3]; 3D7, library screen at 2 μg/mL, 72 h, % growth, replicate 2, read-out: Pf_72h_%Growth_Rep2): 86.6%

Structure (SMILES): CO[C@H]1C[C@@H]2CC[C@@H](C)[C@@](O)(O2)C(=O)C(=O)N2CCCC[C@H]2C(=O)O[C@H]([C@H](C)C[C@@H]2CC[C@@H](O)[C@H](OC)C2)CC(=O)[C@H](C)/C=C(\C)[C@@H](O)[C@@H](OC)C(=O)[C@H](C)C[C@H](C)/C=C/C=C/C=C/1C [Rapamycin]
- activity at 2 µg/mL ([1]; 3D7, 120 h, P. falciparum, 120 h, parasite screen 2 μg/mL, % growth, replicate 1, read-out: Pf_120h_%Growth_Rep1): 104%
- activity at 2 µg/mL ([1]; 3D7, 120 h, P. falciparum, 120 h, parasite screen 2 μg/mL, % growth, replicate 2, read-out: Pf_120h_%Growth_Rep2): 102%
- percent parasite growth at 2 µg/mL ([2]; T. gondii, parasite screen 2 μg/mL, % growth, replicate 1, read-out: Tg_72h_%Growth_Rep1): 132%
- percent parasite growth at 2 µg/mL ([2]; T. gondii, parasite screen 2 μg/mL, % growth, replicate 2, read-out: Tg_72h_%Growth_Rep2): 75.7%
- activity at 2 µg/mL ([3]; 3D7, 72 h, P. falciparum, 72 h, parasite screen 2 μg/mL, % growth, replicate 1, read-out: Pf_72h_%Growth_Rep1): 86.2%
- activity at 2 µg/mL ([3]; 3D7, 72 h, P. falciparum, 72 h, parasite screen 2 μg/mL, % growth, replicate 2, read-out: Pf_72h_%Growth_Rep2): 116%

Structure (SMILES): C=C1CC[C@H]2C(C)(C)CCC[C@]2(C)[C@H]1C[C@@]12C[C@H]3C(=O)N[C@@H](CC(C)C)C(=O)N3[C@@H]1Nc1ccccc12 [Drimentine A]
- Pf_120h_%Growth_Rep1 [1, 8]: 26.95%
- Pf_120h_%Growth_Rep2 [1, 9]: 40.06%
- Tg_72h_%Growth_Rep1 [2, 10]: 101.23%
- Tg_72h_%Growth_Rep2 [2, 11]: 80.15%
- Pf_72h_%Growth_Rep1 [3, 12]: 31.67%
- Pf_72h_%Growth_Rep2 [3, 13]: 47.87%

Structure (SMILES): COc1cc(-c2ccccn2)nc(/C=N/O)c1SC [Collismycin]
- Pf_120h_%Growth_Rep1 [1, 20]: -4.02%
- Pf_120h_%Growth_Rep2 [1, 21]: 3.02%
- Tg_72h_%Growth_Rep1 [2, 22]: -1.50%
- Tg_72h_%Growth_Rep2 [2, 23]: 0.69%
- Pf_72h_%Growth_Rep1 [3, 24]: 3.71%
- Pf_72h_%Growth_Rep2 [3, 25]: 8.55%

Structure (SMILES): CC[C@@H](C)/C=C(C)/C=C/C(=O)c1c(O)c(-c2ccc(O)cc2)cn(O)c1=O [Tenellin]
- Pf_120h_%Growth_Rep1 [1, 20]: 76.98%
- Pf_120h_%Growth_Rep2 [1, 21]: 107.08%
- Tg_72h_%Growth_Rep1 [2, 22]: -2.05%
- Tg_72h_%Growth_Rep2 [2, 23]: 1.18%
- Pf_72h_%Growth_Rep1 [3, 24]: 58.91%
- Pf_72h_%Growth_Rep2 [3, 25]: 96.26%

Structure (SMILES): C[C@H]1[C@H](C)CC[C@]2(C(=O)O)CC[C@]3(C)C(=CC[C@@H]4[C@@]5(C)CC[C@H](O)C(C)(C)[C@@H]5CC[C@]43C)[C@H]12 [Ursolic acid]
- activity at 2 µg/mL [1, 4]: 155%
- activity at 2 µg/mL [1, 5]: 79.7%
- percent parasite growth at 2 µg/mL ([2]; read-out: Tg_72h_%Growth_Rep1): 96%
- percent parasite growth at 2 µg/mL ([2]; read-out: Tg_72h_%Growth_Rep2): 92.8%
- activity at 2 µg/mL [3, 6]: 77.7%
- activity at 2 µg/mL [3, 7]: 84%

Structure (SMILES): CC[C@@H]1CCN[C@H](C(=O)N[C@@H]([C@H]2O[C@H](SC)[C@H](O)[C@@H](O)[C@H]2O)[C@H](C)Cl)C1 [BIA-P1459]
- Pf_120h_%Growth_Rep1 ([1]; P. falciparum 3D7, 120 h, parasite screen at 2 μg/mL, % growth, replicate 1): 9.76%
- Pf_120h_%Growth_Rep2 ([1]; P. falciparum 3D7, 120 h, parasite screen at 2 μg/mL, % growth, replicate 2): 125.61%
- Tg_72h_%Growth_Rep1 ([2]; T. gondii, parasite screen at 2 μg/mL, % growth, replicate 1): 8.37%
- Tg_72h_%Growth_Rep2 ([2]; T. gondii, parasite screen at 2 μg/mL, % growth, replicate 2): 23.25%
- Pf_72h_%Growth_Rep1 ([3]; P. falciparum 3D7, 72 h, parasite screen at 2 μg/mL, % growth, replicate 1): 26.60%
- Pf_72h_%Growth_Rep2 ([3]; P. falciparum 3D7, 72 h, parasite screen at 2 μg/mL, % growth, replicate 2): 41.09%

Structure (SMILES): COCCC[C@H]1O[C@@](O)([C@H](C)C2CC(OC)C(O)/C=C(C)/C=C(C)/C=C(/C)C(O[C@H]3O[C@H](C)[C@@H](OC)[C@H](O)[C@H]3O)C(C)/C=C(CO)/C=C(OC)\C=C(/C)C(=O)O2)[C@H](OC)[C@@H](O)[C@]1(C)O[C@H]1C[C@H](O)[C@H](O[C@H]2C[C@@](C)(O)[C@H](O)[C@@H](C)O2)[C@@H](C)O1 (stereo partly drawn) [Amycolatopsin A]
- Pf_120h_%Growth_Rep1 [1, 8]: 67.28%
- Pf_120h_%Growth_Rep2 [1, 9]: 94.98%
- Tg_72h_%Growth_Rep1 [2, 10]: 96.54%
- Tg_72h_%Growth_Rep2 [2, 11]: 72.55%
- Pf_72h_%Growth_Rep1 [3, 12]: 76.67%
- Pf_72h_%Growth_Rep2 [3, 13]: 110.14%

Structure (SMILES): CC(=O)OCc1c(O)c2c(c3c1OC(=O)c1c(C)cc(O)c(C=O)c1O3)C(O)OC2=O (stereo not drawn) [Galbinic acid]
- Pf_120h_%Growth_Rep1 [1, 8]: 99.54%
- Pf_120h_%Growth_Rep2 [1, 9]: 110.27%
- Tg_72h_%Growth_Rep1 [2, 10]: 125.30%
- Tg_72h_%Growth_Rep2 [2, 11]: 103.13%
- Pf_72h_%Growth_Rep1 [3, 12]: 88.09%
- Pf_72h_%Growth_Rep2 [3, 13]: 110.75%
